From patent US20230202989A1, “COMPOUNDS” (JANSSEN PHARMACEUTICA NV, priority 2020, published 2023)

Assays:
IL-1β = experiment: PBMC assay: inhibition of IL-1β release after LPS stimulation (MSD); type: cell-based; details: Homo sapiens, PBMC, 6 h, human PBMCs, 100 ng/ml LPS for 6 hrs, MSD, 96 well plates; read-out: IL1β IC50
Method: Peripheral venous blood s collected from health individuals and human peripheral blood mononuclear cells (PBMCs) ere isolated from blood by Ficoll Histopaque (Sigma-Aldrich, A0561) density gradient centrifugation. After isolation, PBMCs were stored in liquid nitrogen for later use. Upon thawing, PBMC cell viability was determined in growth medium (RPMI media supplemented with 10% fetal bovine serum, 1% Pen-Strep and 1% L-glutamine). […] PBMCs were added at a density of 7.5×10^4 cells per well and incubated for 30 min in a 5% CO2 incubator at 37° C. LPS stimulation was performed by addition of 100 ng/ml LPS (final concentration, Invivogen, tlrl-smlps) for 6 hrs followed by collection of cellular supernatant and the analysis of IL-1β (μM) and TNF cytokines levels (μM) via MSD technology according to manufacturers' guidelines (MSD, K151A0H).
(§1) The IC50 values (for IL-1β) and EC50 values (TNF) were obtained on compounds of the invention/examples, and are depicted in the following table: […]

TNF = experiment: PBMC assay: TNF cytokine levels after LPS stimulation (MSD); type: cell-based; details: Homo sapiens, PBMC, 6 h, human PBMCs, 100 ng/ml LPS for 6 hrs
Method: Peripheral venous blood s collected from health individuals and human peripheral blood mononuclear cells (PBMCs) ere isolated from blood by Ficoll Histopaque (Sigma-Aldrich, A0561) density gradient centrifugation. After isolation, PBMCs were stored in liquid nitrogen for later use. Upon thawing, PBMC cell viability was determined in growth medium (RPMI media supplemented with 10% fetal bovine serum, 1% Pen-Strep and 1% L-glutamine). Compounds were spotted in a 1:3 serial dilution in DMSO and diluted to the final concentration in 30 μl medium in 96 well plates (Falcon, 353072). PBMCs were added at a density of 7.5×10^4 cells per well and incubated for 30 min in a 5% CO2 incubator at 37° C. LPS stimulation was performed by addition of 100 ng/ml LPS (final concentration, Invivogen, tlrl-smlps) for 6 hrs followed by collection of cellular supernatant and the analysis of IL-1β (μM) and TNF cytokines levels (μM) via MSD technology according to manufacturers' guidelines (MSD, K151A0H).
as §1

SMILES | IC50 (IL-1β) [nM] | EC50 (TNF) [nM]
CCc1nn(CC(=O)N[C@H]2CC[C@H](O)CC2)c(=O)c2ccc(Br)cc12 [Final Cpd 24, trans-2-(6-bromo-4-ethyl-1-oxo-phthalazin-2-yl)-N-(4-hydroxycyclohexyl)acetamide] | 890 | > 10000
CC(C)c1nn(CC(=O)N[C@H]2C[C@@](C)(O)C2)c(=O)c2ccc(C(F)(F)F)cc12 [Final Cpd 25] | 58 | 15400
CCc1nn(CC(=O)N[C@H]2CC[C@H](O)CC2)c(=O)c2ccc(C)cc12 [Final Cpd 26, trans-2-(6-methyl-4-ethyl-1-oxo-phthalazin-2-yl)-N-(4-hydroxycyclohexyl)acetamide] | > 10000 | > 10000
CCc1nn(CC(=O)N[C@H]2CC[C@H](O)CC2)c(=O)c2ccc(C3CC3)cc12 [Final Cpd 27] | 1660 | > 10000
CCc1nn(CC(=O)N[C@H]2CC[C@H](O)CC2)c(=O)c2ccc(C(C)C)cc12 [Final Cpd 28] | 970 | > 10000
CCc1ccc2c(=O)n(CC(=O)N[C@H]3CC[C@H](O)CC3)nc(CC)c2c1 [Final Cpd 29] | 3590 | > 10000
CCc1nn(CC(=O)N[C@H]2CC[C@H](O)CC2)c(=O)c2ccc(C(F)(F)F)cc12 [Final Cpd 30] | 1290 | > 10000
CC(C)c1nn(CC(=O)Nc2ccc3nncn3c2)c(=O)c2ccc(C3CC3)cc12 [Final Cpd 31] | 103 | 13600
CC(C)c1nn(CC(=O)N[C@H]2C[C@@](C)(O)C2)c(=O)c2ccc(C3CC3)cc12 [Final Cpd 32] | 213 | > 20000
CC(C)c1ccc2c(=O)n(CC(=O)Nc3ccc4nncn4c3)nc(C(C)C)c2c1 [Final Cpd 33] | < 120 | > 10000
CC(C)c1ccc2c(=O)n(CC(=O)N[C@H]3C[C@@](C)(O)C3)nc(C(C)C)c2c1 [Final Cpd 34] | < 120 | > 10000
CC(C)c1ccc2c(=O)n(CC(=O)Nc3ccncn3)nc(C(C)C)c2c1 [Final Cpd 35] | 170 | > 10000
CC(C)c1nn(CC(=O)Nc2ccc3nncn3c2)c(=O)c2ccc(Br)cc12 [Final Cpd 36] | < 25 | > 10000
CC(C)c1nn(CC(=O)N[C@H]2C[C@@](C)(O)C2)c(=O)c2ccc(Br)cc12 [Final Cpd 37] | < 25 | > 10000
CC(C)c1nn(CC(=O)Nc2ccncn2)c(=O)c2ccc(Br)cc12 [Final Cpd 38] | < 25 | > 10000
CC(C)c1nn(CC(=O)Nc2ccc3nncn3n2)c(=O)c2ccc(C(F)(F)F)c(F)c12 [Final Cpd X3] | 51 | 4010
C[C@]1(O)C[C@@H](NC(=O)Cn2nc(C3CC3)c3cc(C(F)(F)F)ccc3c2=O)C1 [Final Cpd X4] | 60 | > 20000
CC(C)c1nn(CC(=O)Nc2ccc3c(c2)[nH]c(=O)n3C)c(=O)c2ccc(C(F)(F)F)cc12 [Final Cpd X5] | 64 | > 20000
CCN1CC[C@@H](O)[C@@H](NC(=O)Cn2nc(C(C)C)c3cc(C(F)(F)F)ccc3c2=O)C1 [Final Cpd X6, N-((3S,4R)-1-ethyl-4-hydroxypiperidin-3-yl)-2-(4-isopropyl-1-oxo-6-(trifluoromethyl)phthalazin-2(1H)-yl)acetamide] | 66 | > 20000

SMILES | IC50 (IL-1β) [nM] | EC50 (TNF) [nM]
CCc1nn(CC(=O)Nc2ccc3nncn3c2)c(=O)c2ccc(C(F)(F)F)cc12 [Final Cpd X8] | 75 | 12200
CCN1CCC[C@@H](NC(=O)Cn2nc(C(C)C)c3cc(C(F)(F)F)ccc3c2=O)C1 [Final Cpd X9] | 90 | > 20000
CC(C)c1nn(CC(=O)N[C@@H]2CCCN(C3CC3)C2)c(=O)c2ccc(C(F)(F)F)cc12 [Final Cpd X10] | 92 | > 20000
CC(C)c1nn(CC(=O)Nc2nc(Cl)c3nc[nH]c3n2)c(=O)c2ccc(C(F)(F)F)cc12 [Final Cpd X11, N-(6-chloro-9H-purin-2-yl)-2-(4-isopropyl-1-oxo-6-(trifluoromethyl)phthalazin-2(1H)-yl)acetamide] | 105 | > 20000
CC(C)c1nn(CC(=O)Nc2cn3cnnc3cn2)c(=O)c2ccc(C(F)(F)F)cc12 [Final Cpd X14, N-([1,2,4]triazolo[4,3-a]pyrazin-6-yl)-2-(4-isopropyl-1-oxo-6-(trifluoromethyl)phthalazin-2(1H)-yl)acetamide] | 116 | > 20000
CC(C)c1nn(CC(=O)N[C@H]2CN(C3CC3)CC[C@H]2O)c(=O)c2ccc(C(F)(F)F)cc12 [Final Cpd X15, N-((3S,4R)-1-cyclopropyl-4-hydroxypiperidin-3-yl)-2-(4-isopropyl-1-oxo-6-(trifluoromethyl)phthalazin-2(1H)-yl)acetamide] | 122 | > 20000
CC(C)c1nn(CC(=O)N[C@H]2C[C@@](C)(O)C2)c(=O)c2ccc(C(F)(F)F)c(F)c12 [Final Cpd X17] | 147 | > 20000
CC(C)c1nn(CC(=O)Nc2ccc3nnnn3n2)c(=O)c2ccc(C(F)(F)F)cc12 [Final Cpd X18] | 156 | > 20000
CCC(C)c1nn(CC(=O)Nc2ccc3nncn3c2)c(=O)c2ccc(C(F)(F)F)cc12 (stereo not shown) [Final Cpd X24] | 175 | > 20000
CC(C)c1nn(CC(=O)Nc2ccc3ncn(C)c3c2)c(=O)c2ccc(C(F)(F)F)cc12 [Final Cpd X25] | 178 | > 20000
CC(C)c1nn(CC(=O)Nc2ccc3nncn3c2)c(=O)c2ccc(C(F)(F)F)c(F)c12 [Final Cpd X26] | 185 | > 20000
Cc1cn2cc(NC(=O)Cn3nc(C(C)C)c4cc(C(F)(F)F)ccc4c3=O)ccc2n1 [Final Cpd X27] | 189 | > 20000
Cc1cc(NC(=O)Cn2nc(C(C)C)c3cc(C(F)(F)F)ccc3c2=O)cn2cnnc12 [Final Cpd X28, 2-(4-isopropyl-1-oxo-6-(trifluoromethyl)phthalazin-2(1H)-yl)-N-(8-methyl-[1,2,4]triazolo[4,3-a]pyridin-6-yl)acetamide] | 193 | > 20000
CO[C@]1(C)C[C@H](NC(=O)Cn2nc(C(C)C)c3cc(C(F)(F)F)ccc3c2=O)C1 [Final Cpd X29, 2-(4-isopropyl-1-oxo-6-(trifluoromethyl)phthalazin-2(1H)-yl)-N-((1s,3s)-3-methoxy-3-methylcyclobutyl)acetamide] | 216 | > 20000
CCc1nn(CC(=O)Nc2ccnnc2)c(=O)c2ccc(C(F)(F)F)cc12 [Final Cpd X30] | 219 | > 20000
CC(C)c1nn(CC(=O)Nc2ccc3nccn3c2)c(=O)c2ccc(C(F)(F)F)cc12 [Final Cpd X31] | 233 | > 20000
O=C(Cn1nc(C(F)F)c2cc(C(F)(F)F)ccc2c1=O)Nc1ccc2nncn2c1 [Final Cpd X32] | 235 | > 20000
CC(C)c1nn(CC(=O)Nc2ccc(=O)n(C)n2)c(=O)c2ccc(C(F)(F)F)cc12 [Final Cpd X33] | 252 | > 20000
O=C(Cn1nc(C2CC2)c2cc(C(F)(F)F)ccc2c1=O)Nc1ccc2nncn2n1 [Final Cpd X34] | 255 | > 20000
